According to the NIST ThermoML archive (doi:10.1016/j.jct.2013.06.009):

Assay: mn = molality of the nth substance listed, in mol/kg
Settings: 101.33 kPa, Liquid; for viscosity: Capillary tube (Ostwald / Ubbelohde) method; for mass density: Vibrating tube method

CO/N=C(\C(=O)N[C@@H]1C(=O)N2C(C(=O)O)=C(C[N+]3(C)CCCC3)CS[C@H]12)c1csc(N)n1.Cl.[Cl-] [cefepime dihydrochloride] + O
Settings	mass density [kg/m3]	viscosity [mPa·s]
278.15 K, m1 = 0.01005	1002	1.544
278.15 K, m1 = 0.02017	1004.01	1.57
278.15 K, m1 = 0.0304	1006.02	1.597
278.15 K, m1 = 0.05103	1009.98	1.649
278.15 K, m1 = 0.07222	1013.97	1.705
278.15 K, m1 = 0.09333	1017.86	1.766
278.15 K, m1 = 0.1154	1021.84	1.824
278.15 K, m1 = 0.1343	1025.19	1.88
278.15 K, m1 = 0.1521	1028.29	1.937
283.15 K, m1 = 0.01005	1001.73	1.324
283.15 K, m1 = 0.02017	1003.73	1.348
283.15 K, m1 = 0.0304	1005.73	1.371
283.15 K, m1 = 0.05103	1009.67	1.416
283.15 K, m1 = 0.07222	1013.62	1.463
283.15 K, m1 = 0.09333	1017.47	1.517
283.15 K, m1 = 0.1154	1021.4	1.566
283.15 K, m1 = 0.1343	1024.71	1.613
283.15 K, m1 = 0.1521	1027.79	1.663
288.15 K, m1 = 0.01005	1001.11	1.148
288.15 K, m1 = 0.02017	1003.1	1.17
288.15 K, m1 = 0.0304	1005.08	1.19
288.15 K, m1 = 0.05103	1008.98	1.228
288.15 K, m1 = 0.07222	1012.89	1.269
288.15 K, m1 = 0.09333	1016.7	1.316
288.15 K, m1 = 0.1154	1020.61	1.359
288.15 K, m1 = 0.1343	1023.89	1.4
288.15 K, m1 = 0.1521	1026.93	1.443
293.15 K, m1 = 0.01005	1000.2	1.013
293.15 K, m1 = 0.02017	1002.18	1.031
293.15 K, m1 = 0.0304	1004.15	1.049
293.15 K, m1 = 0.05103	1008.03	1.082
293.15 K, m1 = 0.07222	1011.91	1.12
293.15 K, m1 = 0.09333	1015.7	1.161
293.15 K, m1 = 0.1154	1019.57	1.199
293.15 K, m1 = 0.1343	1022.82	1.235
293.15 K, m1 = 0.1521	1025.83	1.273
298.15 K, m1 = 0.01005	999.04	0.899
298.15 K, m1 = 0.02017	1001.01	0.9159
298.15 K, m1 = 0.0304	1002.97	0.9314
298.15 K, m1 = 0.05103	1006.84	0.9593
298.15 K, m1 = 0.07222	1010.7	0.9939
298.15 K, m1 = 0.09333	1014.46	1.029
298.15 K, m1 = 0.1154	1018.29	1.065
298.15 K, m1 = 0.1343	1021.51	1.096
298.15 K, m1 = 0.1521	1024.5	1.13
303.15 K, m1 = 0.01005	997.63	0.8046
303.15 K, m1 = 0.02017	999.59	0.8192
303.15 K, m1 = 0.0304	1001.53	0.8325
303.15 K, m1 = 0.05103	1005.38	0.8581
303.15 K, m1 = 0.07222	1009.21	0.8888
303.15 K, m1 = 0.09333	1012.95	0.9175
303.15 K, m1 = 0.1154	1016.75	0.9513
303.15 K, m1 = 0.1343	1019.94	0.9813
303.15 K, m1 = 0.1521	1022.9	1.01
308.15 K, m1 = 0.01005	996.01	0.7235
308.15 K, m1 = 0.02017	997.96	0.7352
308.15 K, m1 = 0.0304	999.9	0.7465
308.15 K, m1 = 0.05103	1003.71	0.7718
308.15 K, m1 = 0.07222	1007.53	0.7974
308.15 K, m1 = 0.09333	1011.24	0.8261
308.15 K, m1 = 0.1154	1015.02	0.8553
308.15 K, m1 = 0.1343	1018.18	0.881
308.15 K, m1 = 0.1521	1021.12	0.904
313.15 K, m1 = 0.01005	994.18	0.6561
313.15 K, m1 = 0.02017	996.12	0.6652
313.15 K, m1 = 0.0304	998.04	0.6753
313.15 K, m1 = 0.05103	1001.85	0.6976
313.15 K, m1 = 0.07222	1005.64	0.7193
313.15 K, m1 = 0.09333	1009.33	0.7448
313.15 K, m1 = 0.1154	1013.07	0.7705
313.15 K, m1 = 0.1343	1016.22	0.7947
313.15 K, m1 = 0.1521	1019.14	0.8162
